Measured values taken from patent US11044909B2, “Composition for destruction of microalgae or sphaerocarpus” (CUREARTH, INC., priority 2015, dated 2021).
pIC50: −log10 of the molar value. Like-named read-outs stand apart in the source and are kept apart here.

Experiments:
Assay in all cases: Microalgae-destroying effect by IC50 measurement (cell count)
Assay type in all cases: cell-based
Chattonella Marina = conditions: 24 h, read-out: IC50 Chattonella Marina
Description: (§1) The IC50 value was obtained according to Equation 1: […]
(§2) First, the above-listed microalgae were cultured in a culture flask at a temperature of about 20° C. under light conditions, and a medium used was Guillard's f/2 medium which is commonly used in the art (Guillard R R L and Keller M D. Culturing dinoflagellates. In: Spector (Ed.), Dinoflagellates. New York: Academic Press; 1984, 391442).
(§3) After the cultured microalgae were transferred onto a 24-well plate, Chattonella Marina, Heterosigma circularisquama, Cochlodinium Polykrikoides, and Heterosigma akashiwo, which were in an exponential growth phase, were treated with Compounds 1 to 3, 5 to 10, 12, 13, 17 to 43, and 45 to 47 synthesized in Examples 1 to 3, 5 to 10, 12, 13, 17 to 43, and 45 to 47 at concentrations of 0.1 uM, 0.2 uM, 0.5 uM, 1 uM, 2 uM, and 5 uM, and then cultured for 1 day.
(§4) Control groups were not treated with any of the compounds synthesized in the above-identified examples. After incubation, the number of cells of each alga was counted using a Burker-Tukr hemocytometer, and IC50 values were calculated according to Equation 1 using SigmaPlot Version 11.2 software (Standard curve: the four-parameter logistic curve).

[1] = test system: Heterocapsa Circularisquama; conditions: 24 h
Description: as §1, §2, §3, §4

Heterosigma Akashiwo = conditions: 24 h, read-out: IC50 Heterosigma Akashiwo
Description: as §1, §2, §3, §4

[2] = test system: Cochlodinium Polykrikoides; conditions: Margalefidinium polykrikoides, 24 h, read-out: IC50 Cochlodinium Polykrikoides
Description: (§5) The IC50 value was obtained according to Equation 1:
(§6) The algicidal activity of each compound was calculated using Equation 2: Algicidal activity (%)=(1−Tt/Ct)×100 <Equation 2>
(§7) In Equation 2, T (treatment group) and C (control group) represent algae densities in cell counts when each compound was inoculated and was not inoculated, respectively, and t represents the number of days which had passed after the inoculation.
as §2, §3, §4

Microcystis aeruginosa = conditions: read-out: IC50 Microcystis aeruginosa
Description: as §5, §6, §7, §2
Microcystis aeruginosa was treated with Compounds 1 to 3, 5 to 10, 12, 13, 17 to 43, and 45 to 51 synthesized in Examples 1 to 3, 5 to 10, 12, 13, 17 to 43, and 45 to 51 at concentrations of 0.1 uM, 0.2 uM, 0.5 uM, 1 uM, 2 uM, 5 uM, 10 uM, 15 uM, and 20 uM and then cultured for 5 days.
as §4

[3] = Table 1, 3,4-dichlorobenzylamines, 0.1-5 uM, cultured 1 day
[4] = Table 1, 3,4-dichlorobenzylamines, 0.1-5 uM, cultured 1 day, read-out: IC50 Heterocapsa Circularisquama
[5] = Microcystis aeruginosa, 120 h, Table 1, 3,4-dichlorobenzylamines, 0.1-20 uM, cultured 5 days
[6] = Table 2, 0.1-5 uM, cultured 1 day
[7] = Table 2, 0.1-5 uM, cultured 1 day, read-out: IC50 Heterocapsa Circulariaquama

| SMILES | pIC50 (Chattonella Marina; [3]) | pIC50 [1, 4] | pIC50 (Heterosigma Akashiwo; [3]) | pIC50 [2, 3] | pIC50 (Microcystis aeruginosa; [5]) | pIC50 (Chattonella Marina; [6]) | pIC50 [1, 7] | pIC50 (Heterosigma Akashiwo; [6]) | pIC50 [2, 6] | pIC50 (Microcystis aeruginosa; Microcystis aeruginosa, 120 h) | also measured |
| --- | --- | --- | --- | --- | --- | --- | --- | --- | --- | --- | --- |
| COCCNCc1ccc(Cl)c(Cl)c1 [Compound 5, (3,4-dichloro-benzyl)-(2-methoxy-ethyl)-amine] | < 5.30 | < 5.30 | 5.89 | < 5.30 | 4.85 |  |  |  |  |  |  |
| CN(C)CCCNC(=O)c1ccc(Cl)c(Cl)c1 [Compound 12, 3,4-Dichloro-N-(3-dimethylamino-propyl)-benzamide] |  |  |  |  |  | < 5.30 | < 5.30 | 5.81 | < 5.30 | < 5.30 |  |
| Clc1ccc(CNC2CCCCCCC2)cc1Cl [Compound 47, Cyclooctyl-(3,4-dichloro-benzyl)-amine] | 6.30 | 5.92 | 6.47 | 7.00 | 4.82 |  |  |  |  |  |  |
| Oc1ccccc1CNCCc1ccccn1 [Compound 38, 2-[(2-Pyridin-2-yl-ethylamino)-methyl]-phenol] |  |  |  |  |  | 6.04 | < 5.30 | 6.89 | < 5.30 | < 5.30 |  |
| Clc1ccc(CNCc2ccccn2)cc1Cl [Compound 26, (3,4-Dichloro-benzyl)-pyridin-2-ylmethyl-amine] | 5.47 | < 5.30 | 6.14 | < 5.30 | < 4.70 |  |  |  |  |  |  |
| Fc1ccc(NCc2ccc(Cl)c(Cl)c2)cc1 [Compound 23, (3,4-Dichloro-benzyl)-(4-fluoro-phenyl)-amine] | < 5.30 | < 5.30 | 5.81 | < 5.30 | 4.96 |  |  |  |  |  |  |
| Clc1ccc(CNCc2ccccc2)cc1Cl [Compound 29, Benzyl-(3,4-dichloro-benzyl)-amine] | 5.46 | 5.49 | 6.22 | 5.56 | 4.84 |  |  |  |  |  |  |
| Brc1ccc(CNCCc2ccccn2)cc1 [Compound 41, (4-Bromo-benzyl)-(2-pyridin-2-yl-ethyl)-amine] |  |  |  |  |  | 6.14 | < 5.30 | 6.85 | < 5.30 | < 5.30 |  |
| O=C(/C=C/c1ccc(Cl)c(Cl)c1)c1ccc(Cl)cc1 [Compound 24, 1-(4-Chloro-phenyl)-3-(3,4-dichloro-phenyl)-propenone] |  |  |  |  |  | < 5.30 | < 5.30 | 5.77 | 5.88 | < 5.30 |  |
| COC(CCCNCc1ccc(Cl)c(Cl)c1)OC [Compound 6, (3,4-Dichloro-benzyl)-(4,4-dimethoxy-butyl)-amine] | < 5.30 | 5.32 | 5.89 | 5.35 | 5.06 |  |  |  |  |  |  |
| CCCCN(CCCC)CCCNCc1ccc(Cl)c(Cl)c1 [Compound 50, N,N-Dibutyl-N′-(3,4-dichlorobenzyl)propane-1,3-diamine] |  |  |  |  | 6.27 |  |  |  |  |  |  |
| Clc1ccc(CNc2ccc(Br)cc2)cc1Cl [Compound 25, (4-Bromo-phenyl)-(3,4-dichloro-benzyl)-amine] | < 5.30 | 5.55 | 5.92 | 5.40 | 4.95 |  |  |  |  |  |  |
| Clc1ccc(CNCCc2ccncc2)cc1Cl [Compound 30, (3,4-Dichloro-benzyl)-(2-pyridin-4-yl-ethyl)-amine] | 5.46 | 5.72 | 6.38 | 5.57 | < 4.70 |  |  |  |  |  |  |
| Clc1ccc(CNCCc2cccnc2)cc1Cl [Compound 31, (3,4-Dichloro-benzyl)-(2-pyridin-3-yl-ethyl)-amine] | 5.46 | 5.80 | 6.23 | 6.37 | < 4.70 |  |  |  |  |  |  |
| CCCNCc1ccc(Cl)c(Cl)c1 [Compound 18, (3,4-Dichloro-benzyl)-propyl-amine] | 5.57 | < 5.30 | 6.14 | 5.36 | 4.93 |  |  |  |  |  |  |
| CCN(CC)CCCNCc1ccc(Cl)c(Cl)c1 [Compound 48, N′-(3,4-Dichloro-benzyl)-N, N-diethyl-propane-1,3-diamine.2HCl] |  |  |  |  |  |  |  |  |  |  | pIC50 (Microcystis aeruginosa; Table 1, 3,4-dichlorobenzylamines, 0.1-20 uM, cultured 5 days): 6.11 |

| SMILES | pIC50 (Chattonella Marina; [3]) | pIC50 [1, 4] | pIC50 (Heterosigma Akashiwo; [3]) | pIC50 [2, 3] | pIC50 (Microcystis aeruginosa; [5]) | pIC50 (Chattonella Marina; [6]) | pIC50 [1, 7] | pIC50 (Heterosigma Akashiwo; [6]) | pIC50 [2, 6] | pIC50 (Microcystis aeruginosa; Microcystis aeruginosa, 120 h) | also measured |
| --- | --- | --- | --- | --- | --- | --- | --- | --- | --- | --- | --- |
| O=C(/C=C/c1ccc(Cl)c(Cl)c1)c1ccccc1 [Compound 22, 3-(3,4-Dichloro-phenyl)-1-phenyl-propenone] |  |  |  |  |  | < 5.30 | < 5.30 | 5.44 | 5.78 | < 5.30 |  |
| CN(C)CCNC(=O)c1ccc(Cl)c(Cl)c1 [Compound 10, 3,4-Dichloro-N-(2-dimethylamino-ethyl)-benzamide] |  |  |  |  |  | < 5.30 | < 5.30 | 5.79 | < 5.30 | < 5.30 |  |
| CCN(CC)CCNC(=O)c1ccc(Cl)c(Cl)c1 [Compound 9, 3,4-Dichloro-N-(2-diethylamino-ethyl)-benzamide] |  |  |  |  |  | < 5.30 | 5.71 | 5.73 | 5.34 | 6.01 |  |
| Clc1ccc(CNC2CCCCCC2)cc1Cl [Compound 36, Cycloheptyl-(3,4-dichloro-benzyl)-amine] | 6.60 | 6.16 | 6.58 | 6.82 | 5.51 |  |  |  |  |  |  |
| Brc1ccccc1CNCCc1ccccn1 [Compound 39, (2-Bromo-benzyl)-(2-pyridin-2-yl-ethyl)-amine] |  |  |  |  |  |  |  |  |  | < 5.30 | pIC50 (Chattonella Marina): 5.95; pIC50 ([1]; read-out: IC50 Heterocapsa Circulariaquama): < 5.30; pIC50 (Heterosigma Akashiwo): 6.55; pIC50 [2]: < 5.30 |
| Clc1ccc(NCc2ccc(Cl)c(Cl)c2)cc1 [Compound 21, (4-Chloro-phenyl)-(3,4-dichloro-benzyl)-amine] | < 5.30 | 5.48 | 5.89 | 5.44 | 5.02 |  |  |  |  |  |  |
| Clc1ccc(CNCCc2ccccc2)cc1Cl [Compound 34, (3,4-Dichloro-benzyl)-phenethyl-amine] | 6.34 | 5.82 | 6.92 | 6.06 | 5.22 |  |  |  |  |  |  |
| CCN(CC)CCCNC(=O)c1ccc(Cl)c(Cl)c1 [Compound 13, 3,4-Dichloro-N-(3-diethylamino-propyl)-benzamide] |  |  |  |  |  | 5.35 | 5.30 | 5.64 | 5.65 | < 5.30 |  |
| c1ccc(CNC2CCCCCC2)cc1 [Compound 42, Benzyl-cycloheptyl-amine] |  |  |  |  |  | 6.28 | < 5.30 | 6.82 | < 5.30 | < 5.30 |  |
| Brc1cccc(CNCCc2ccccn2)c1 [Compound 40, (3-Bromo-benzyl)-(2-pyridin-2-yl-ethyl)-amine] |  |  |  |  |  | 6.13 | < 5.30 | 6.24 | 5.46 | < 5.30 |  |
| CCCCN(CCCC)CCNCc1ccc(Cl)c(Cl)c1 [Compound 49, N,N-Dibutyl-N′-(3,4-dichlorobenzyl)ethane-1,2-diamine] |  |  |  |  | 6.06 |  |  |  |  |  |  |
| Clc1ccc(CNC2CCC2)cc1Cl [Compound 46, Cyclobutyl-(3,4-dichloro-benzyl)-amine] | 5.95 | 5.51 | 6.32 | 5.78 | 4.80 |  |  |  |  |  |  |
| CN(C)CCNCc1ccc(Cl)c(Cl)c1 [Compound 3, N′-(3,4-Dichloro-benzyl)-N,N-dimethyl-ethane-1,2-diamine] | < 5.30 | 5.51 | 5.65 | < 5.30 | 5.08 |  |  |  |  |  |  |
| CCN(CC)CCNCc1ccc(Cl)c(Cl)c1 [Compound 1, N′-(3,4-dichloro-benzyl)-N,N-diethyl-ethane-1,2-diamine] | 5.54 | 5.75 | 5.80 | 5.64 | 5.31 |  |  |  |  |  |  |
| OCCN(CCO)CCCNCc1ccc(Cl)c(Cl)c1 [Compound 51, 2-[[3-(3,4-Dichlorobenzylamino)propyl]-(2-hydroxyethyl)amino]ethanol] |  |  |  |  | 5.64 |  |  |  |  |  |  |
